Laboratory results as given in ChEMBL document CHEMBL4715913, “Discovery of benzo[f]pyrido[4,3-b][1,4]oxazepin-10-one derivatives as orally available bromodomain and extra-terminal domain (BET) inhibitors with efficacy in an in vivo psoriatic animal model” (Bioorg Med Chem, 2021).
Active and inactive are the calls of the source. The rule behind the calls is not given here.

Key:
[1] = biological target: T1, Bromodomain-containing protein 4 (Homo sapiens, UniProt O60885); experiment: Inhibition of BRD4-BD1 (unknown origin) by TR-FRET assay
[2] = biological target: T1, Bromodomain-containing protein 4; experiment: Inhibition of BRD4 in human PBMC assessed as reduction in LPS-induced TNFalpha secretion preincubated for 1 hr followed by LPS-stimulation and measured after 20 hrs by magnetic beads technique based assay
[3] = biological target: T2, Mitogen-activated protein kinase 7 (Homo sapiens, UniProt Q13164); experiment: Inhibition of recombinant human ERK5 using myelin basic protein as substrate by [gamm33P]ATP based HotSpot radiometric assay
[4] = Stability of compound in human liver microsomes assessed as parent compound remaining after 1 hr
[5] = biological target: T3, Voltage-gated inwardly rectifying potassium channel KCNH2 (Homo sapiens, UniProt Q12809); experiment: Inhibition of human ERG stably expressed in CHO cells at holding potential of -80 mV incubated for 12 mins
PBMC [6] = experiment: Inhibition of IL-6 production in LPS-induced human PBMC preincubated for 1 hr followed by LPS-stimulation and measured after 20 hrs by magnetic beads technique based assay; assay type: functional, tissue-based; settings: time 21.0 hrs
PBMC [7] = experiment: Inhibition of MCP-1 production in LPS-induced human PBMC preincubated for 1 hr followed by LPS-stimulation and measured after 20 hrs by magnetic beads technique based assay; assay type: functional, tissue-based; settings: time 21.0 hrs
[8] = biological target: T4, Bromodomain testis-specific protein (Homo sapiens, UniProt Q58F21); experiment: Binding affinity to human partial length BRDT-BD1 (N21 to E137 residues) expressed in bacterial expression system by BROMOscan method
[9] = biological target: T4, Bromodomain testis-specific protein; experiment: Binding affinity to human partial length BRDT-BD2 (K250 to E382 residues) expressed in bacterial expression system by BROMOscan method
CREB-binding protein = CREB-binding protein (Homo sapiens, UniProt Q92793); experiment: Binding affinity to human partial length CREBBP (R1081 to G1197 residues) expressed in bacterial expression system by BROMOscan method
[10] = biological target: T5, Bromodomain-containing protein 2 (Homo sapiens, UniProt P25440); experiment: Binding affinity to human partial length BRD2-BD1 (K71 to N194 residues) expressed in bacterial expression system by BROMOscan method
[11] = biological target: T6, Bromodomain-containing protein 3 (Homo sapiens, UniProt Q15059); experiment: Binding affinity to human partial length BRD3-BD1 (P24 to E144 residues) expressed in bacterial expression system by BROMOscan method
[12] = biological target: T5, Bromodomain-containing protein 2; experiment: Binding affinity to human partial length BRD2-BD2 (E348 to D455 residues) expressed in bacterial expression system by BROMOscan method
[13] = biological target: T6, Bromodomain-containing protein 3; experiment: Binding affinity to human partial length BRD3-BD2 (G306 to P416 residues) expressed in bacterial expression system by BROMOscan method
[14] = biological target: T1, Bromodomain-containing protein 4; experiment: Binding affinity to human partial length BRD4-BD1 (N44 to E168 residues) expressed in bacterial expression system by BROMOscan method
[15] = biological target: T1, Bromodomain-containing protein 4; experiment: Binding affinity to human partial length BRD4-BD2 (K333 to E460 residues) expressed in bacterial expression system by BROMOscan method
[16] = biological target: Histone acetyltransferase p300 (Homo sapiens, UniProt Q09472); experiment: Binding affinity to human partial length EP300 (A1040 to G1161 residues) expressed in bacterial expression system by BROMOscan method
Homo sapiens [17] = species on record: Homo sapiens; experiment: Selectivity ratio of Kd for binding affinity to human partial length CREBBP (R1081 to G1197 residues) expressed in bacterial expression system to Kd for binding affinity to human partial length BRD2-BD1 (K71 to N194 residues) expressed in bacterial expression system
Homo sapiens [18] = species on record: Homo sapiens; experiment: Selectivity ratio of Kd for binding affinity to human partial length EP300 (A1040 to G1161 residues) expressed in bacterial expression system to Kd for binding affinity to human partial length BRD2-BD1 (K71 to N194 residues) expressed in bacterial expression system
Homo sapiens [19] = species on record: Homo sapiens; experiment: Selectivity ratio of Kd for binding affinity to human partial length CREBBP (R1081 to G1197 residues) expressed in bacterial expression system to Kd for binding affinity to human partial length BRD2-BD2 (E348 to D455 residues) expressed in bacterial expression system
Homo sapiens [20] = species on record: Homo sapiens; experiment: Selectivity ratio of Kd for binding affinity to human partial length EP300 (A1040 to G1161 residues) expressed in bacterial expression system to Kd for binding affinity to human partial length BRD2-BD2 (E348 to D455 residues) expressed in bacterial expression system
Homo sapiens [21] = species on record: Homo sapiens; experiment: Selectivity ratio of Kd for binding affinity to human partial length CREBBP (R1081 to G1197 residues) expressed in bacterial expression system to Kd for binding affinity to human partial length BRD3-BD1 (P24 to E144 residues) expressed in bacterial expression system
Homo sapiens [22] = species on record: Homo sapiens; experiment: Selectivity ratio of Kd for binding affinity to human partial length EP300 (A1040 to G1161 residues) expressed in bacterial expression system to Kd for binding affinity to human partial length BRD3-BD1 (P24 to E144 residues) expressed in bacterial expression system
Homo sapiens [23] = species on record: Homo sapiens; experiment: Selectivity ratio of Kd for binding affinity to human partial length CREBBP (R1081 to G1197 residues) expressed in bacterial expression system to Kd for binding affinity to human partial length BRD3-BD2 (G306 to P416 residues) expressed in bacterial expression system
Homo sapiens [24] = species on record: Homo sapiens; experiment: Selectivity ratio of Kd for binding affinity to human partial length EP300 (A1040 to G1161 residues) expressed in bacterial expression system to Kd for binding affinity to human partial length BRD3-BD2 (G306 to P416 residues) expressed in bacterial expression system
Homo sapiens [25] = species on record: Homo sapiens; experiment: Selectivity ratio of Kd for binding affinity to human partial length CREBBP (R1081 to G1197 residues) expressed in bacterial expression system to Kd for binding affinity to human partial length BRD4-BD1 (N44 to E168 residues) expressed in bacterial expression system
Homo sapiens [26] = species on record: Homo sapiens; experiment: Selectivity ratio of Kd for binding affinity to human partial length EP300 (A1040 to G1161 residues) expressed in bacterial expression system to Kd for binding affinity to human partial length BRD4-BD1 (N44 to E168 residues) expressed in bacterial expression system
Homo sapiens [27] = species on record: Homo sapiens; experiment: Selectivity ratio of Kd for binding affinity to human partial length CREBBP (R1081 to G1197 residues) expressed in bacterial expression system to Kd for binding affinity to human partial length BRD4-BD2 (K333 to E460 residues) expressed in bacterial expression system
Homo sapiens [28] = species on record: Homo sapiens; experiment: Selectivity ratio of Kd for binding affinity to human partial length EP300 (A1040 to G1161 residues) expressed in bacterial expression system to Kd for binding affinity to human partial length BRD4-BD2 (K333 to E460 residues) expressed in bacterial expression system
Homo sapiens [29] = species on record: Homo sapiens; experiment: Selectivity ratio of Kd for binding affinity to human partial length CREBBP (R1081 to G1197 residues) expressed in bacterial expression system to Kd for binding affinity to human partial length BRDT-BD1 (N21 to E137 residues) expressed in bacterial expression system
Homo sapiens [30] = species on record: Homo sapiens; experiment: Selectivity ratio of Kd for binding affinity to human partial length EP300 (A1040 to G1161 residues) expressed in bacterial expression system to Kd for binding affinity to human partial length BRDT-BD1 (N21 to E137 residues) expressed in bacterial expression system
Homo sapiens [31] = species on record: Homo sapiens; experiment: Selectivity ratio of Kd for binding affinity to human partial length CREBBP (R1081 to G1197 residues) expressed in bacterial expression system to Kd for binding affinity to human partial length BRDT-BD2 (K250 to E382 residues) expressed in bacterial expression system
Homo sapiens [32] = species on record: Homo sapiens; experiment: Selectivity ratio of Kd for binding affinity to human partial length EP300 (A1040 to G1161 residues) expressed in bacterial expression system to Kd for binding affinity to human partial length BRDT-BD2 (K250 to E382 residues) expressed in bacterial expression system
Mus musculus [33] = experiment: Protection against imiquimod-induced po dosed Harlan Balb/c mouse model of psoriasis assessed as decrease in ear thickness administered BID for 7 days measured on day 8 by dial gauge micrometer analysis; assay type: functional, organism-based; settings: dose 3-30 mg/kg, time 7.0 day
Mus musculus [34] = experiment: Protection against imiquimod-induced Harlan Balb/c mouse model of psoriasis assessed as decrease in ear thickness at 10 mg/kg, po administered BID for 7 days measured on day 8 by dial gauge micrometer analysis; assay type: functional, organism-based; settings: time 7.0 day
[35] = Toxicity in imiquimod-induced Harlan Balb/c mouse model of psoriasis assessed as effect on body weight at 3 to 30 mg/kg, po BID for 7 days; assay type: organism-based; settings: in vivo, 168 h, dose 3-30 mg/kg, time 7 day
[36] = biological target: T1, Bromodomain-containing protein 4; experiment: Binding affinity to BRD4-BD1 (unknown origin)
[37] = biological target: T2, Mitogen-activated protein kinase 7; experiment: Inhibition of ERK5 (unknown origin)
[38] = biological target: T3, Voltage-gated inwardly rectifying potassium channel KCNH2; experiment: Inhibition of human ERG
[39] = Dissociation constant, pKa of compound; assay type: physicochemical

T3 sequence (Q12809 whole entry): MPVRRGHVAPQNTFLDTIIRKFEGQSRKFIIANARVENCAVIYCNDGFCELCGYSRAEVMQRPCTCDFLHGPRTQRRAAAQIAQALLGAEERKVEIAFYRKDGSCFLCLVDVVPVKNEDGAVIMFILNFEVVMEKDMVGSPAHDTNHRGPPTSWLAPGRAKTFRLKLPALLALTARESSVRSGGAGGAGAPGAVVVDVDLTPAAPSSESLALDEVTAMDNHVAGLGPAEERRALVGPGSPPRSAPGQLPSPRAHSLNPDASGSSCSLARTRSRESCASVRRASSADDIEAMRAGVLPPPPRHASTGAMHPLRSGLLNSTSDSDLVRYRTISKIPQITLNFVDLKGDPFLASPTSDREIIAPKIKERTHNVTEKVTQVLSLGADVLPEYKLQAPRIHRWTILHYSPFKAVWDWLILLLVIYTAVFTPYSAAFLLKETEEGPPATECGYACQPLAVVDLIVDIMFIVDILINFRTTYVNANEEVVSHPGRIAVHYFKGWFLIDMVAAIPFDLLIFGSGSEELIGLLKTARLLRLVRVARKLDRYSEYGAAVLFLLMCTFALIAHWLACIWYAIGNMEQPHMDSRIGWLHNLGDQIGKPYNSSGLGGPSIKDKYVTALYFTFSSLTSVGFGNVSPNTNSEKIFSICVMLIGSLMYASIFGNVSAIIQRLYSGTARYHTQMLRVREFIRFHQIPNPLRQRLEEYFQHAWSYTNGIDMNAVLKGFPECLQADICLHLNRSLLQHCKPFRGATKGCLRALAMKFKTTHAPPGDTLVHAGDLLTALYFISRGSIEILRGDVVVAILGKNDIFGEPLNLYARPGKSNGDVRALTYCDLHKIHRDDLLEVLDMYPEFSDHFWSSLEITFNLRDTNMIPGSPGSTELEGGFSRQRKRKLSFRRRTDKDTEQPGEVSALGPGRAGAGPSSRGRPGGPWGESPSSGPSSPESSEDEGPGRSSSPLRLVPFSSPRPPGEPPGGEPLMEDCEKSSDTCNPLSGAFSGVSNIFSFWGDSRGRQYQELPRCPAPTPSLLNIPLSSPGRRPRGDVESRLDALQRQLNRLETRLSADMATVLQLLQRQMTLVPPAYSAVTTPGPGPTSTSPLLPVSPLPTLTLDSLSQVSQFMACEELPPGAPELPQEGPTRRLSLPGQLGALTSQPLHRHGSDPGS
T2 sequence (Q13164 whole entry): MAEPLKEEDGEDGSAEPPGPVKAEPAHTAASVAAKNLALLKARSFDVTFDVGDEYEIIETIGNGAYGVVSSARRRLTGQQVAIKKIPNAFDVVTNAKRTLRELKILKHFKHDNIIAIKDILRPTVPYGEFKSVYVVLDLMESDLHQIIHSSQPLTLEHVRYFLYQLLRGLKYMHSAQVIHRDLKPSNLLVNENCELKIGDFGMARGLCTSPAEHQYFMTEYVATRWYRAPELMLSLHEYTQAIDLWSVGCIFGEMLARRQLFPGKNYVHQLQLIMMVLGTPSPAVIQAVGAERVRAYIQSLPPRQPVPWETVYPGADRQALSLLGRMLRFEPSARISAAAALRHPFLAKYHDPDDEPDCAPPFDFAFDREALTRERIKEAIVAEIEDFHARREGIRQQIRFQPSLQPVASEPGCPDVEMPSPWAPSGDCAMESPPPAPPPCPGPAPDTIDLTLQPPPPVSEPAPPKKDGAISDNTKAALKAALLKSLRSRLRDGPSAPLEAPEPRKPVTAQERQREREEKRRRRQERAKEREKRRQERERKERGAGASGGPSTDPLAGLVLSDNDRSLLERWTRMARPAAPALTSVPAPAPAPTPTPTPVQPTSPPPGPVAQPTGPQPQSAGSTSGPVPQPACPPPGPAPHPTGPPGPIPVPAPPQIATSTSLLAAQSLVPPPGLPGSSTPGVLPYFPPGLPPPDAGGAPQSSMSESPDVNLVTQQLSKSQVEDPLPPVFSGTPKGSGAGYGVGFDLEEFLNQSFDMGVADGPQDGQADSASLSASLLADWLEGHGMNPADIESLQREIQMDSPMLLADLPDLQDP
Chain of CREB-binding protein (Q92793 whole entry, the tested form may be a part): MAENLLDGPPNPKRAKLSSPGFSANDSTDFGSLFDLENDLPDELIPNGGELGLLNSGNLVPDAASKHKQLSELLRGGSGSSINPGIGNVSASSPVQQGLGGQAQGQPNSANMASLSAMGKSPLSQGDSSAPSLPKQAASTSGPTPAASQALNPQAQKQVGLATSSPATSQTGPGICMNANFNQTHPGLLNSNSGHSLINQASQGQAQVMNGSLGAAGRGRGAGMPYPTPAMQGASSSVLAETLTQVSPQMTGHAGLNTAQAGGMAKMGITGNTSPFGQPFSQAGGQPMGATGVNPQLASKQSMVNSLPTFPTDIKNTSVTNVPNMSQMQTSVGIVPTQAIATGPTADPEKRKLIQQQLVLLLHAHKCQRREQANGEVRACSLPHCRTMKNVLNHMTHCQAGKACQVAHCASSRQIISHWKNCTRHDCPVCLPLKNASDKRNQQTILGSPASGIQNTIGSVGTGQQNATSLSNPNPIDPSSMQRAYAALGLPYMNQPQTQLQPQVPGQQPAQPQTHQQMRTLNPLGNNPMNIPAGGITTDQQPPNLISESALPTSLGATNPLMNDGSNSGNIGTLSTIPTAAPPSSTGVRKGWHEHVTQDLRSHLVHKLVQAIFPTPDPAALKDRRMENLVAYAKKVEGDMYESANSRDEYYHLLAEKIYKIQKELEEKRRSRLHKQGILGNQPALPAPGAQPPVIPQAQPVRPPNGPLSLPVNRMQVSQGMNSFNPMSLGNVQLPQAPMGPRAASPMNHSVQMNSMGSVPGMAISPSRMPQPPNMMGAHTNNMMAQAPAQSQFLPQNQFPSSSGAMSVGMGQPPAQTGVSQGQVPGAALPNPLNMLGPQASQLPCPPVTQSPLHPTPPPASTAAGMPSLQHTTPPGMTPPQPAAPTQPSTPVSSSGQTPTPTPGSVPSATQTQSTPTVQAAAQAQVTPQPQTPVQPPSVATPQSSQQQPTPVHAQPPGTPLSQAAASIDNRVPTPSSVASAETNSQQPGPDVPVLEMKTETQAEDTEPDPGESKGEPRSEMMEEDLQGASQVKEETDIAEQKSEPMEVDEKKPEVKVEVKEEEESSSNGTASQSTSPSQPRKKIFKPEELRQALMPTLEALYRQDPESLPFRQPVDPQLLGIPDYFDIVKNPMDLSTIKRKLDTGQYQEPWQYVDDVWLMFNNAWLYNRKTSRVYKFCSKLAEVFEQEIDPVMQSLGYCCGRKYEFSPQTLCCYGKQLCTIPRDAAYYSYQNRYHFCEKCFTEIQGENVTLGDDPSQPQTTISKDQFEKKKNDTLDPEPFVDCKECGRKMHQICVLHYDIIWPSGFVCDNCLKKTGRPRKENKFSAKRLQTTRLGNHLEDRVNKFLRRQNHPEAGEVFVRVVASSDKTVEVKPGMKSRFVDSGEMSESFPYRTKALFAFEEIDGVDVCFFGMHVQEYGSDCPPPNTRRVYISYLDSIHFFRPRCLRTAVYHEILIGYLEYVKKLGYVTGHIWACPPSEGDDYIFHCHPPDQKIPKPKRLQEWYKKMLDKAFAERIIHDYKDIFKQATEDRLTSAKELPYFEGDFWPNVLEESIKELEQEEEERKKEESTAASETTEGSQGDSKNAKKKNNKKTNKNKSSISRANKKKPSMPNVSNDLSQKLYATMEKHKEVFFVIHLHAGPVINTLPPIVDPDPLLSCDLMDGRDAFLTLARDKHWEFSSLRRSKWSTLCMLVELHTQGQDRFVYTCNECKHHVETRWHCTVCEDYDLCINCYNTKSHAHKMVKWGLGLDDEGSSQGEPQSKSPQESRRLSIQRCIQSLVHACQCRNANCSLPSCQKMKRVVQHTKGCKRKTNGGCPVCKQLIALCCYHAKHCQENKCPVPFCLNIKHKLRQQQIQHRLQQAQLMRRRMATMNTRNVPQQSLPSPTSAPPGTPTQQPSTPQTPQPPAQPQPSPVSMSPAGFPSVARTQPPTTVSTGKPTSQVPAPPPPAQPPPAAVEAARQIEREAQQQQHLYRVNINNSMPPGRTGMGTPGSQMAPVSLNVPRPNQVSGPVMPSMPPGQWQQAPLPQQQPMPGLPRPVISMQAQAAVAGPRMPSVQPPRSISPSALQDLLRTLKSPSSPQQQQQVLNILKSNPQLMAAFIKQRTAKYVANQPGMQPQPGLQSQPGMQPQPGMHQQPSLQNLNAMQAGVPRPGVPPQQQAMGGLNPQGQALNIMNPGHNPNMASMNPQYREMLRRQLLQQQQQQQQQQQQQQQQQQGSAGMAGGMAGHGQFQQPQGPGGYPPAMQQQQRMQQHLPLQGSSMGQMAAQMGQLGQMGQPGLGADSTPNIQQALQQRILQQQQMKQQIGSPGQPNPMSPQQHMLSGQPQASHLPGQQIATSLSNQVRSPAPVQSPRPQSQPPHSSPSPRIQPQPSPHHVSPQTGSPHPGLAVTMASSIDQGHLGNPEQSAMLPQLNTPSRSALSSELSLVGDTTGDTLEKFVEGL
T6 sequence (Q15059 whole entry, the tested form may be a part): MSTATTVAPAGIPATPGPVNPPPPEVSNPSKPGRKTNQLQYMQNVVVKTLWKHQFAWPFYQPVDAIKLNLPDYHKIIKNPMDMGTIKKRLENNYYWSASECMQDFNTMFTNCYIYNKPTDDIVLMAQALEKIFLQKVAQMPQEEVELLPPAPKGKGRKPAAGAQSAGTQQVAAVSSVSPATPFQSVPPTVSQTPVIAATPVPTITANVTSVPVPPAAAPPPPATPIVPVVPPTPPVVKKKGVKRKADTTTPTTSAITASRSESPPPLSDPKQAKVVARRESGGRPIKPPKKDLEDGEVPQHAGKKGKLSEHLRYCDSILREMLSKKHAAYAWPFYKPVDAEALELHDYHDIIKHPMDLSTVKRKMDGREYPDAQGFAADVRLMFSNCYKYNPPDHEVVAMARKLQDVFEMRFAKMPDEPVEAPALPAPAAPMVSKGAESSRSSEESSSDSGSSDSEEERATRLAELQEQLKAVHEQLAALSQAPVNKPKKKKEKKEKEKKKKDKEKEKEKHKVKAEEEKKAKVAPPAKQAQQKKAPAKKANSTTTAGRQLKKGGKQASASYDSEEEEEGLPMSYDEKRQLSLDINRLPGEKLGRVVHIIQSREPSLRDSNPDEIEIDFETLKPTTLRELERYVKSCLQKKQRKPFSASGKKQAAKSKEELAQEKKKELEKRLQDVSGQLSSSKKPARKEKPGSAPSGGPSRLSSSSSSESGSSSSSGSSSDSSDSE

`CN1C(=O)c2cccc(Cl)c2Oc2cc(N[C@H]3CC[C@H](O)CC3)ncc21` gave an IC50 [1] of 12.8 µM, an EC50 [2] of 1.17 µM and an IC50 [3] of 1.05 µM. For the same molecule, the remaining at 1 h [4] was 103%, the IC50 [5] was over 10 µM and the inhibition (PBMC [6]) was “Active”. For the same molecule, the inhibition (PBMC [7]) was “Active”.
With `CCO[C@H]1CC[C@H](Nc2cc3c(cn2)N(C)C(=O)c2ccccc2N3C)CC1` the IC50 [1] was 9.99 µM, the EC50 [2] was 2.74 µM and the IC50 [3] was 0.081 µM. The inhibition (PBMC [6]) was “Active” and the inhibition (PBMC [7]) was “Active”.
Molecule `COc1cccc2c1Oc1cc(N[C@H]3CC[C@H](O)CC3)ncc1N(C)C2=O` has an IC50 [1] of 2.82 µM, an EC50 [2] of 1.38 µM and an IC50 [3] of 1.1 µM. For the same molecule, the remaining at 1 h [4] was 85%, the IC50 [5] was over 10 µM and the inhibition (PBMC [6]) was “Active”. For the same molecule, the inhibition (PBMC [7]) was “Active”.
`CCNC(=O)C[C@@H]1N=C(c2ccc(Cl)cc2)c2cc(OC)ccc2-n2c(C)nnc21` [MOLIBRESIB] gave a Kd [8] of 0.112 µM, a Kd [9] of 0.06 µM and a Kd (CREB-binding protein) of 83 µM. The inhibition (PBMC [6]) was “Active” and the inhibition (PBMC [7]) was “Active”.
With `CN1C(=O)c2c(F)cccc2Oc2cc(N[C@H]3CC[C@H](O)CC3)ncc21` the Kd [10] was 0.071 µM, the Kd [11] was 0.052 µM and the IC50 [1] was 1.27 µM. The EC50 [2] was 0.44 µM, the IC50 [3] was 0.131 µM and the remaining at 1 h [4] was 100%. For the same molecule, the IC50 [5] was over 10 µM, the Kd [12] was 0.16 µM and the Kd [13] was 0.14 µM. For the same molecule, the Kd [14] was 0.078 µM, the Kd [15] was 0.072 µM and the Kd [8] was 0.17 µM. The Kd [9] was 0.22 µM, the Kd (CREB-binding protein) was 1.9 µM and the Kd [16] was 1.2 µM. For the same molecule, the inhibition (PBMC [6]) was “Active”, the inhibition (PBMC [7]) was “Active” and the Selectivity ratio (Homo sapiens [17]) was 20. It also gave a Selectivity ratio (Homo sapiens [18]) of 20, a Selectivity ratio (Homo sapiens [19]) of 20 and a Selectivity ratio (Homo sapiens [20]) of 20. The Selectivity ratio (Homo sapiens [21]) was 20, the Selectivity ratio (Homo sapiens [22]) was 20 and the Selectivity ratio (Homo sapiens [23]) was 20. For the same molecule, the Selectivity ratio (Homo sapiens [24]) was 20, the Selectivity ratio (Homo sapiens [25]) was 20 and the Selectivity ratio (Homo sapiens [26]) was 20. The Selectivity ratio (Homo sapiens [27]) was 20, the Selectivity ratio (Homo sapiens [28]) was 20 and the Selectivity ratio (Homo sapiens [29]) was 20. The Selectivity ratio (Homo sapiens [30]) was 20, the Selectivity ratio (Homo sapiens [31]) was 20 and the Selectivity ratio (Homo sapiens [32]) was 20. For the same molecule, the Activity (Mus musculus [33]) was “Dose-dependent effect”, the Activity (Mus musculus [34]) was “Active” and the Activity [35] was “Non-Toxic”.
For `CN1C(=O)c2ccccc2S(=O)(=O)c2cc(N[C@H]3CC[C@H](O)CC3)ncc21`, the IC50 [1] was over 30 µM, the inhibition (PBMC [6]) was “Active” and the inhibition (PBMC [7]) was “Active”.
Molecule `CN1C(=O)c2ccccc2N(C)c2cc(N[C@H]3CC[C@H](O)CC3)ncc21` has a Kd [36] of 0.13 µM, an IC50 [37] of 0.089 µM and an IC50 [38] of over 10 µM. It also gave a pKa [39] of 5.06, an IC50 [1] of 5.99 µM and an EC50 [2] of 2.11 µM. The IC50 [3] was 0.089 µM, the inhibition (PBMC [6]) was “Active” and the inhibition (PBMC [7]) was “Active”.
